# pEC50: −log10 of the molar value.
# Columns and labels:
# [1] = target: T1, plasma kallikrein (Homo sapiens, UniProt P03952); test: Neat human plasma assay, FXIIa contact pathway-activated, PFR-AMC substrate; format: biochemical; details: citrated human plasma 78% final, 10 nM human FXIIa, 100 μM PFR-AMC; read-out: Human Plasma Assay: IC90
# T1 construct: from tissue
# Summary of the method: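 Compound inhibition of plasma kallikrein measured as PFR-AMC (100 μM) cleavage rate over 5 min at room temperature in 78% citrated human plasma activated with 10 nM FXIIa (Tris pH 7.5 buffer). IC50/IC90 from 4-parameter fit of rate versus inhibitor concentration.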
# [2] = target: human activated kallikrein enzyme (Homo sapiens, UniProt P03952); test: Plasma kallikrein inhibition, fluorogenic PFR-AMC substrate, 500 pM activated kallikrein format; format: biochemical; details: 500 pM activated kallikrein, 300 uM PFR-AMC, 30 min preincubation, 10 min reaction; read-out: Primary Dose Response Assay: Average EC50
# Sequence of human activated kallikrein enzyme (P03952 391-638 limits assumed): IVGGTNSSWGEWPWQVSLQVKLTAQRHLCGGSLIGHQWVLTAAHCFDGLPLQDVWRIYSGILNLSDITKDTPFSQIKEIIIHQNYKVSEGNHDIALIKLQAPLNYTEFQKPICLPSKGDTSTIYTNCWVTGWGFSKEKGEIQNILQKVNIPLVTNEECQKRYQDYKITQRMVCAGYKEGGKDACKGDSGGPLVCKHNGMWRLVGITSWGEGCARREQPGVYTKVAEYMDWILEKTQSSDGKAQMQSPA
# Sequence of human activated kallikrein enzyme (P03952 20-390 partner limits assumed): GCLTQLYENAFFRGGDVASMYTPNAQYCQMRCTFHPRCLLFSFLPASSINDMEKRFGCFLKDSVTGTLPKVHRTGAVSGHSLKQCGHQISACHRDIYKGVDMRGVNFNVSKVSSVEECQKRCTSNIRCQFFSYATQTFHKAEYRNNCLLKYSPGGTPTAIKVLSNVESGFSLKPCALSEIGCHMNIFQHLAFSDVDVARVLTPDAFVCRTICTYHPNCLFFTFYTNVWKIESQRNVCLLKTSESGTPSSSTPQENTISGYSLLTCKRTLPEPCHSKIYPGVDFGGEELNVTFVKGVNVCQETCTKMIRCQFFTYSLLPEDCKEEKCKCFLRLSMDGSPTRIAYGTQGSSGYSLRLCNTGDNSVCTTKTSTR
# Summary of the method: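 Fluorescence (ex 380/em 460 nm) is read after 10 min of 300 uM PFR-AMC turnover by 500 pM enzyme at RT. Compounds sit with enzyme for 30 min beforehand. Buffer is Tris (pH 7.5) with EDTA, NaCl, PEG-400 and Triton X-100; EC50 values are banded.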
# T1 sequence (P03952 391-638 limits assumed): as the sequence (P03952 391-638 limits assumed) above
# T1 sequence (P03952 20-390 partner limits assumed): as the sequence (P03952 20-390 partner limits assumed) above
IC90 [1] [nM],pEC50 [2],SMILES
1500 to 10000,8.00 to 9.00,"CN1CN(c2cc(C3CC3)cn3cc(CNc4cc(NC(=O)[C@H]5C[C@@H]5c5cccc(Cl)c5)ncn4)nc23)CC1=O [Example I-9, (1S,2S)-2-(3-chlorophenyl)-N-(6-(((6-cyclopropyl-8-(3-methyl-4-oxoimidazolidin-1-yl)imidazo[1,2-a]pyridin-2-yl)methyl)amino)pyrimidin-4-yl)cyclopropane-1-carboxamide]"
400 to 1500,> 9.00,"Cc1ccnc([C@H]2C[C@@H]2C(=O)Nc2cc(OCc3cn4cc(C5CC5)cc(N5CC(=O)N(CC(C)(C)O)C5=O)c4n3)nc(C)n2)n1 [Example 562, (1S,2S)—N-(6-((6-cyclopropyl-8-(3-(2-hydroxy-2-methylpropyl)-2,4-dioxoimidazolidin-1-yl)imidazo[1,2-a]pyridin-2-yl)methoxy)-2-methylpyrimidin-4-yl)-2-(4-methylpyrimidin-2-yl)cyclopropane-1-carboxamide]"
400 to 1500,> 9.00,"O=C(Nc1cc(NCc2cn3cc(C4CC4)cc(N4CCN5CC(O)CC5C4)c3n2)ccn1)[C@H]1C[C@@H]1c1cccc(Cl)c1 (stereo partly drawn) [Example I-228, (1S,2S)-2-(3-chlorophenyl)-N-(4-(((6-cyclopropyl-8-(7-hydroxyhexahydropyrrolo[1,2-a]pyrazin-2(1H)-yl)imidazo[1,2-a]pyridin-2-yl)methyl)amino)pyridin-2-yl)cyclopropane-1-carboxamide]"
< 400,> 9.00,"Cc1ccnc([C@H]2C[C@@H]2C(=O)Nc2cc(NCc3cn4cc(C5CC5)cc(N5CC(=O)N(C6COC6)C5=O)c4n3)ncn2)n1 [Example 378, (1S,2S)-N-(6-(((6-cyclopropyl-8-(3-(oxetan-3-yl)-2,4-dioxoimidazolidin-1-yl)imidazo[1,2-a]pyridin-2-yl)methyl)amino)pyrimidin-4-yl)-2-(4-methylpyrimidin-2-yl)cyclopropane-1-carboxamide]"
400 to 1500,> 9.00,"Cc1ccnc([C@H]2C[C@@H]2C(=O)Nc2cc(N(C)Cc3cn4cc(C5CC5)cc(N5CC(=O)N(CC(C)(C)O)C5=O)c4n3)nc(C)n2)n1 [Example 359, (1S,2S)-N-(6-(((6-cyclopropyl-8-(3-(2-hydroxy-2-methylpropyl)-2,4-dioxoimidazolidin-1-yl)imidazo[1,2-a]pyridin-2-yl)methyl)(methyl)amino)-2-methylpyrimidin-4-yl)-2-(4-methylpyrimidin-2-yl)cyclopropane-1-carboxamide]"
400 to 1500,> 9.00,"CC[C@@H](Nc1cc(NC(=O)[C@H]2C[C@@H]2c2nccc(C)n2)nc(C)n1)c1cn2cc(C3CC3)cc(N3CC(=O)N(C)C3=O)c2n1 [Example 358, (1S,2S)-N-(6-(((R)-1-(6-cyclopropyl-8-(3-methyl-2,4-dioxoimidazolidin-1-yl)imidazo[1,2-a]pyridin-2-yl)propyl)amino)-2-methylpyrimidin-4-yl)-2-(4-methylpyrimidin-2-yl)cyclopropane-1-carboxamide]"
1500 to 10000,> 9.00,"O=C(Nc1cc(NCc2cn3cc(C4CC4)ccc3n2)cc(O)n1)[C@H]1C[C@@H]1c1cccc(Cl)c1 [Example 611, (1S,2S)-2-(3-chlorophenyl)-N-(4-(((6-cyclopropylimidazo[1,2-a]pyridin-2-yl)methyl)amino)-6-hydroxypyridin-2-yl)cyclopropane-1-carboxamide]"

# Further lines, the compound ahead of its results:
SMILES,IC90 [1] [nM],pEC50 [2]
"O=C(Nc1cc(NCc2cn3cc(C4CC4)cc(N4CCN(CC5CC5)CC4)c3n2)ccn1)[C@H]1C[C@@H]1c1cccc(Cl)c1 [Example 601, (1S,2S)-2-(3-chlorophenyl)-N-(4-(((6-cyclopropyl-8-(4-(cyclopropylmethyl)piperazin-1-yl)imidazo[1,2-a]pyridin-2-yl)methyl)amino)pyridin-2-yl)cyclopropane-1-carboxamide]",400 to 1500,> 9.00
"Cc1cncc([C@H]2C[C@@H]2C(=O)Nc2cc(NCc3cn4cc(C5CC5)cc(N5CC(=O)N(C)C5=O)c4n3)ncn2)n1 (racemic) [Example 498, rac-(1S*,2S*)-N-(6-(((6-cyclopropyl-8-(3-methyl-2,4-dioxoimidazolidin-1-yl)imidazo[1,2-a]pyridin-2-yl)methyl)amino)pyrimidin-4-yl)-2-(6-methylpyrazin-2-yl)cyclopropane-1-carboxamide]",400 to 1500,> 9.00
"O=C(Nc1cc(NCc2cn3cc(C4CC4)cc(C4(O)CNC4)c3n2)ccn1)[C@H]1C[C@@H]1c1cccc(Cl)c1 [Example 134, (1S,2S)-2-(3-chlorophenyl)-N-(4-(((6-cyclopropyl-8-(3-hydroxyazetidin-3-yl)imidazo[1,2-a]pyridin-2-yl)methyl)amino)pyridin-2-yl)cyclopropane-1-carboxamide]",< 400,> 9.00
"Cc1cc(N2CC(=O)N(C)C2=O)c2nc([C@@H](C)Nc3cc(NC(=O)[C@H]4C[C@@H]4c4nccc(C)n4)nc(C)n3)cn2c1 [Example 434, (1S,2S)-N-(2-methyl-6-(((R)-1-(6-methyl-8-(3-methyl-2,4-dioxoimidazolidin-1-yl)imidazo[1,2-a]pyridin-2-yl)ethyl)amino)pyrimidin-4-yl)-2-(4-methylpyrimidin-2-yl)cyclopropane-1-carboxamide]",< 400,> 9.00
"CN1CC(=O)N(c2cc(C3CC3)cn3cc(CNc4cc(NC(=O)[C@H]5C[C@@H]5c5cccc(Cl)c5)ncn4)nc23)CC1=O [Example 404, (1S,2S)-2-(3-chlorophenyl)-N-(6-(((6-cyclopropyl-8-(4-methyl-2,5-dioxopiperazin-1-yl)imidazo[1,2-a]pyridin-2-yl)methyl)amino)pyrimidin-4-yl)cyclopropane-1-carboxamide]",400 to 1500,> 9.00
"Cc1ccnc([C@H]2C[C@@H]2C(=O)Nc2ncc(F)c(NCc3cn4cc(C5CC5)cc(N5CC(=O)N(CCO)C5=O)c4n3)n2)n1 (racemic) [Example 540, rac-(1S*,2S*)—N-(4-(((6-cyclopropyl-8-(3-(2-hydroxyethyl)-2,4-dioxoimidazolidin-1-yl)imidazo[1,2-a]pyridin-2-yl)methyl)amino)-5-fluoropyrimidin-2-yl)-2-(4-methylpyrimidin-2-yl)cyclopropane-1-carboxamide]",< 400,> 9.00
Cc1ccnc([C@H]2C[C@@H]2C(=O)Nc2cc(NCc3cn4cc(C5CC5)cc(N5CC(=O)N(CC(=O)O)C5=O)c4n3)ncn2)n1 [Example 465],400 to 1500,> 9.00
"CN1C(=O)CN(c2cc(C3CC3)cn3cc(CNc4cc(NC(=O)[C@H]5C[C@@H]5c5nccc(CF)n5)ncn4)nc23)C1=O (racemic) [Example I-163, rac-(1S*,2S*)-N-(6-(((6-cyclopropyl-8-(3-methyl-2,4-dioxoimidazolidin-1-yl)imidazo[1,2-a]pyridin-2-yl)methyl)amino)pyrimidin-4-yl)-2-(4-(fluoromethyl)pyrimidin-2-yl)cyclopropane-1-carboxamide]",400 to 1500,> 9.00
"O=C(Nc1cc(NCc2cn3cc(C4CC4)cc(N4CC(=O)N(CC(F)(F)F)C4=O)c3n2)ccn1)[C@H]1C[C@@H]1c1cccc(Cl)c1 [Example 512, (1S,2S)-2-(3-chlorophenyl)-N-(4-(((6-cyclopropyl-8-(2,4-dioxo-3-(2,2,2-trifluoroethyl)imidazolidin-1-yl)imidazo[1,2-a]pyridin-2-yl)methyl)amino)pyridin-2-yl)cyclopropane-1-carboxamide]",1500 to 10000,8.00 to 9.00

# From US20240228488A1 (TAKEDA PHARMACEUTICAL COMPANY LIMITED, priority 2021, published 2024)
